Reference: US20040063681A1, “Methods for using gold (III) complexes as anti-tumor and anti-HIV agents” (priority 2002, published 2004)
pIC50: −log10 of the molar value.

Legend:
[1] = test system: human cancer cell lines (HL-60, HepG2, HeLa, KB-3-1, KB-V1, SUNE1, CNE1); assay type: cell-based; conditions: killing oral epidermoid and nasopharyngeal cancer cells
From the text: Human promyelocytic leukemia (HL-60), human hepatocellular carcinoma (HepG2), Human cervix epitheloid carcinoma cells (HeLa) and human oral epidermoid carcinoma cells (KB-3-1), were obtained from American Type Culture Collection (ATCC) (Rockville, Md.). The multi-drug-resistant variant KB-V1 cell line was obtained by stepwise selections for vinblastine resistance as described by Shen et al., J. Biol. Chem. 261:7762-7770 (1986)], and was generously provided by Dr Michael Gottesman (NIH, Bethesda, Md.). Human nasopharyngeal carcinoma cells (SUNE1 and its cisplatin resistance variant, CNE1) were derived from poorly differentiated NPC in Chinese patients as described by Gu et al., Chin. J. Cancer 2:270-272 (1983), and were generously provided by Dr S. W. Tsao (The University of Hong Kong, Hong Kong, PRC). Cell culture flasks and 96 well microtitre plates were from Nalge Nunc hit. Culture medium, other medium constituents and phosphate buffered saline (PBS) were obtained from Gibco BRL (Rockville, Md.). […]
The anti-cancer activities of the gold(III) porphyrin complexes were evaluated toward some established human cancer cell lines: promyelocytic leukemia (HL-60), hepatocellular carcinoma (HepG2), cervix epitheloid carcinoma (HeLa), epidermoid carcinoma (KB-3-1) and its multi-drug resistant variant (KB-V1), nasopharyngeal carcinoma (SUNE1) and its cisplatin-resistant variant (CNE1). […]

[2] = target: T1, HIV-1 reverse transcriptase (Human immunodeficiency virus type 1 group M subtype B, UniProt P04585); assay: HIV-1 reverse transcriptase activity, ELISA method; assay type: biochemical; conditions: drug concentration fixed at 6 μM
T1 construct: treatment of HIV-1 RT in Lysis buffer (2 ng, 128.7 μL) with Complex 1j
Description: HIV-1 reverse transcriptase activities were measured by an ELISA method (see Eberle et al, J. Virol. Methods, 40:347-356 (1992) performed by incubating the enzyme with digoxigenin-labeled deoxyuridin-5′-triphosphate (dUTP) and the biotin-labeled analogue during reverse transcription starting from the template/primer hybrid poly(A)•oligo(dT)15. After reverse transcription, the newly synthesized DNA was immobilized onto streptavidin-coated ELISA wells, and the incorporation of the dioxigenin-labeled dUTP was assayed by chemiluminescence method. For example, treatment of HIV-1 RT in Lysis buffer (2 ng, 128.7 μL) with Complex 1j (1.3 μL of […] stock solution) dissolved in TBS at 37° C. produced significant RT activity inhibition (˜95%) after 30 min incubation.

HeLa cells = assay: Flow cytometry annexin V/propidium iodide apoptosis assay; assay type: cell-based, human; conditions: after treatment (Complex 1a 6 and 15 h; straurosporine 15 h)
From the text: Flow cytometry: The gold(III) porphyrin-induced apoptosis of the HeLa cell line has been further examined by flow cytometry. During the early phase of apoptosis, cells lose the asymmetry of their membrane phospholipids, although the integrity of the cell membrane is maintained. A negatively charged phospholipid, named phosphatidylserine (PS), which is located in the inner part of the plasma membrane, becomes exposed to the cell surface. A phospholipid-binding protein, annexin V (green emissive upon binding), with high affinity binds preferentially to PS. Apoptotic cells therefore can be stained by annexin V before the dying cell changes its morphology and hydrolyzes its DNA. On the other hand, both DNA and the PS would be exposed for necrotic cells. In this case, propidium iodide (PI, red emissive upon binding), can be used to stain selectively the naked DNA. Therefore, both apoptotic and necrotic cells can be discriminated after adding these two staining reagents. For apoptotic cells, only annexin V would stain; for necrotic cells, both annexin V and PI would stain.
For comparison, a control cell culture experiment was performed in the absence of Complex 1a and straurosporine. […] Throughout the flow cytometric experiment, <1% of necrotic cells were observed.

plasmid DNA (pDR2) = assay: Restriction endonuclease (ApaI) fragmentation assay; conditions: comparison compounds, lanes F and H of FIG. 8
From the text: Binding of the metalloporphyrin onto a duplex DNA such as plasmid DNA (pDR2) is expected to occupy the binding site of the restriction enzyme ApaI, thereby inhibiting the enzymatic DNA digestion. See Ikeda et al., J. Am. Chem. Soc. 104:296-297 (1982).
After ApaI digestion, (lane B), three bands corresponding to 6.6, 4.4 and 2.0 kbp were observed.

calf thymus DNA [3] = assay: Viscosity evaluation of DNA; conditions: (η/ηo)^1/3 vs binding ratio r
From the text: Viscosity evaluation. The binding interaction of the gold(III) porphyrins can be further investigated by examining the change of DNA viscosity upon binding of the metalloporphyrin. If the metalloporphyrin binds to DNA by intercalation, this would cause chain elongation, unwinding and stiffening of the DNA helix as a consequence of untwisting of the base pairs and helical backbone needed to accommodate the intercalator.
For comparison, the viscosity profiles for ethidium bromide (intercalator) and Hoechst 33342 (minor groove binder) are also shown is FIG. 10.

calf thymus DNA [4] = assay: UV-vis absorption titration with calf thymus DNA; assay type: binding; conditions: for hypochromicity / intrinsic binding constant (Kb): Tris buffer
Description: The calf thymus DNA was purchased from Sigma-Aldrich Chemical Co. and was purified by phenol-chloroform extraction. The DNA was dissolved in buffer (5 mM Tris, 5 mM NaCl, pH 7.2). The concentration (per base pair) of calf thymus DNA was determined spectrophotometrically on the basic of ε260, 13,200 M^−1cm^−1bp.
Absorption Titration. The binding interaction of the gold(III) porphyrins to duplex DNA has been studied by UV-vis spectroscopy.
where [ctDNA] is the concentration of DNA, Δεap═|εA−εB| in which εA=Aobs/[complex], and Δε=|εB−εF|. εB and εF correspond to the extinction coefficient of DNA-bound gold(III) porphyrin and the free gold(III) porphyrins, respectively.
The effect of temperature on the intrinsic binding constants was investigated. Using the van't Hoff equation (2): […]

[5] = test system: Human Nasopharyngeal Carcinoma (cisplatin resistance, CNE1); assay: MTT cytotoxicity, CNE1; assay type: cell-based
From the text: (§1) Human promyelocytic leukemia (HL-60), human hepatocellular carcinoma (HepG2), Human cervix epitheloid carcinoma cells (HeLa) and human oral epidermoid carcinoma cells (KB-3-1), were obtained from American Type Culture Collection (ATCC) (Rockville, Md.). […] Cell culture flasks and 96 well microtitre plates were from Nalge Nunc hit. Culture medium, other medium constituents and phosphate buffered saline (PBS) were obtained from Gibco BRL (Rockville, Md.). Cell Proliferation Kit I (MTT) was purchased from Roche (Mannheim, Germany).

[6] = test system: Human Nasopharyngeal Carcinoma (SUNE1); assay: MTT cytotoxicity, SUNE1; assay type: cell-based
From the text: as §1

[7] = test system: Human Cervix Epitheloid Carcinoma (HeLa); assay: MTT cytotoxicity, HeLa; assay type: cell-based
From the text: as §1

[8] = Control UV-vis titration with sodium dodecyl sulfate instead of DNA; assay type: binding; conditions: sodium dodecyl sulfate (0-5 μM) instead of DNA
From the text: See Neidle, S. DNA structure and recognition; Oxford University Press: Oxford, 1994; 74-79.

[9] = test system: Human Hepatocellular Carcinoma (HepG2); assay: MTT cytotoxicity, HepG2; assay type: cell-based; conditions: growth inhibition
From the text: (§2) Human promyelocytic leukemia (HL-60), human hepatocellular carcinoma (HepG2), Human cervix epitheloid carcinoma cells (HeLa) and human oral epidermoid carcinoma cells (KB-3-1), were obtained from American Type Culture Collection (ATCC) (Rockville, Md.). The multi-drug-resistant variant KB-V1 cell line was obtained by stepwise selections for vinblastine resistance as described by Shen et al., J. Biol. Chem. 261:7762-7770 (1986)], and was generously provided by Dr Michael Gottesman (NIH, Bethesda, Md.). Human nasopharyngeal carcinoma cells (SUNE1 and its cisplatin resistance variant, CNE1) were derived from poorly differentiated NPC in Chinese patients as described by Gu et al., Chin. J. Cancer 2:270-272 (1983), and were generously provided by Dr S. W. Tsao (The University of Hong Kong, Hong Kong, PRC). Cell culture flasks and 96 well microtitre plates were from Nalge Nunc hit. Culture medium, other medium constituents and phosphate buffered saline (PBS) were obtained from Gibco BRL (Rockville, Md.). Cell Proliferation Kit I (MTT) was purchased from Roche (Mannheim, Germany).
(§3) The anti-cancer activities of the gold(III) porphyrin complexes were evaluated toward some established human cancer cell lines: promyelocytic leukemia (HL-60), hepatocellular carcinoma (HepG2), cervix epitheloid carcinoma (HeLa), epidermoid carcinoma (KB-3-1) and its multi-drug resistant variant (KB-V1), nasopharyngeal carcinoma (SUNE1) and its cisplatin-resistant variant (CNE1). The experiments were carried out by following the MTT procedure (see Mosmann et al., J. Immunol. Methods 65:55-63 (1983). The IC50 values of the gold(III) porphyrin complexes together with that of cisplatin, and KAuCl4 are provided in Table 4a; and the IC50 values of the gold(III) Schiff-base and bis(pyridyl)carboxamide complexes are shown in Table 4b. The cytotoxicity profiles of some selected gold(III) porphyrin complexes toward SUNE1 and its cisplatin-resistant variant CNE1 are also shown in FIG. 7.

[10] = test system: Human Promyelocytic Leukemia (HL-60); assay: MTT cytotoxicity, HL-60; assay type: cell-based; conditions: growth inhibition
From the text: as §2, §3

Compound: [Au+3].[Cl-].[Cl-].[Cl-].[Cl-].[K+] [KAu^IIICl4, reference compound]
- times less potent than Complex 1a [1]: about 40 times
- HIV-1 RT inhibition [2]: 48%

Compound: CN[C@@H]1C[C@H]2O[C@@](C)([C@@H]1OC)n1c3ccccc3c3c4c(c5c6ccccc6n2c5c31)C(=O)NC4 [straurosporine, reference compound]
- annexin V emission (HeLa cells): the magnitude of the annexin V emission was enhanced

Compound: CCOc1ccc(-c2nc3ccc(-c4nc5ccc(N6CCN(C)CC6)cc5[nH]4)cc3[nH]2)cc1 [Hoechst 33342, reference compound]
- effect on ApaI digestion of pDR2 (plasmid DNA (pDR2)): complete inhibition of the DNA digestion
- change in viscosity of the DNA (calf thymus DNA [3]): no appreciable change in viscosity of the DNA

Compound: Fc1c(F)c(F)c(-c2c3nc(c(-c4c(F)c(F)c(F)c(F)c4F)c4ccc([n-]4)c(-c4c(F)c(F)c(F)c(F)c4F)c4nc(c(-c5c(F)c(F)c(F)c(F)c5F)c5ccc2[n-]5)C=C4)C=C3)c(F)c1F.[Au+3].[Cl-] [Complex 1g]
- hypochromicity (calf thymus DNA [4]; 291.8 K): 18.2%
- intrinsic binding constant (Kb) (calf thymus DNA [4]; 291.8 K): 0.73 × 10^6 dm^3mol^−1
- hypochromicity (calf thymus DNA [4]; 297.6 K): 18.0%
- intrinsic binding constant (Kb) (calf thymus DNA [4]; 297.6 K): 0.58 × 10^6 dm^3mol^−1
- hypochromicity (calf thymus DNA [4]; 301.4 K): 16.5%
- intrinsic binding constant (Kb) (calf thymus DNA [4]; 301.4 K): 0.47 × 10^6 dm^3mol^−1
- hypochromicity (calf thymus DNA [4]; 306.1 K): 10.1%
- intrinsic binding constant (Kb) (calf thymus DNA [4]; 306.1 K): 0.42 × 10^6 dm^3mol^−1
- hypochromicity (calf thymus DNA [4]; 311.7 K): 8.7%
- intrinsic binding constant (Kb) (calf thymus DNA [4]; 311.7 K): 0.34 × 10^6 dm^3mol^−1
- ΔH° (calf thymus DNA [4]; binding to calf thymus DNA, van't Hoff analysis): −7.0 ± 0.4 kcalmol^−1
- ΔG° (298 K) (calf thymus DNA [4]; binding to calf thymus DNA, van't Hoff analysis, 298 K): −7.8 ± 0.5
- IC50 ratio [cisplatin/gold (III) porphyrin complexes] CNE1 [5]: 28.1
- pIC50 ([5]; MTT, growth inhibition, cisplatin resistant): 5.84
- IC50 ratio [cisplatin/gold (III) porphyrin complexes] SUNE1 [6]: 5.97
- pIC50 ([6]; MTT, growth inhibition): 5.68
- IC50 ratio [cisplatin/gold (III) porphyrin complexes] HeLa [7]: 3.52
- pIC50 ([7]; MTT, growth inhibition): 5.50
- bathochromic shift [8]: 6 nm
- hypochromicity of the Soret band [8]: 48%
- pIC50 [9]: 5.64
- pIC50 [10]: 5.84
